The values below come from paper PMC3965533, “Inhibition of Cathepsin B by E-64 Induces Oxidative Stress and Apoptosis in Filarial Parasite” (PLoS ONE, 2014).

One may read the IC50 as the concentration at which inhibition is half-maximal.

The subject of the test is cathepsin B (cathepsin B like cysteine protease).

`CC(C)C[C@H](NC(=O)[C@H]1O[C@@H]1C(=O)O)C(=O)NCCCCNC(=N)N` [E-64, L-trans-Epoxysuccinyl-leucylamido (4-guanidino)butane]: the IC50 came out at 6 µM.
